Experimental data published in ChEMBL document CHEMBL5537157, “Selective Antitumor Effect and Lower Toxicity of Mitochondrion-Targeting Derivatization of Triptolide” (J Med Chem, 2024).
The source made the active and inactive calls. The calls are words filed in the database; no cut-off is given here.

Legend:
[1] = Toxicity in zebrafish embryo assessed as damage effect in liver function at 0.25 uM with replacement of new growth solution daily by fluorescence microscopy relative to control; format: tissue-based, Danio rerio; settings: in vivo
[2] = Toxicity in zebrafish embryo assessed as damage effect in liver function at 2 uM with replacement of new growth solution daily by fluorescence microscopy relative to control; design: species or system Danio rerio; settings: in vivo
[3] = Toxicity in zebrafish embryo assessed as liver development at 2 uM with replacement of new growth solution daily by fluorescence microscopy (reference value: 100.00 +/- 8.64 %); format: tissue-based, Danio rerio; settings: in vivo
[4] = Toxicity in zebrafish embryo assessed as death rate at 4 uM pretreated with compound followed by replacement of growth liquid by microscopy (reference value: 2.22 +/- 3.84 %); design: species or system Danio rerio; settings: in vivo, read-out: Activity
[5] = Toxicity in zebrafish embryo assessed as degree of periocular edema at 2 uM pretreated with compound followed by replacement of growth liquid by microscopy (reference value: 0.00 %); design: species or system Danio rerio; settings: in vivo
[6] = Toxicity in zebrafish embryo assessed as liver development at 0.5 uM with replacement of new growth solution daily by fluorescence microscopy (reference value: 100.00 +/- 8.64 %); format: tissue-based, Danio rerio; settings: in vivo
[7] = Toxicity in zebrafish embryo assessed as degree of periocular edema at 1 uM pretreated with compound followed by replacement of growth liquid by microscopy (reference value: 0.00 %); design: species or system Danio rerio; settings: in vivo
[8] = Toxicity in zebrafish embryo assessed as damage effect in liver development at 0.5 uM with replacement of new growth solution daily by fluorescence microscopy relative to control; format: tissue-based, Danio rerio; settings: in vivo
[9] = Toxicity in zebrafish embryo assessed as damage effect in liver development at 1 uM with replacement of new growth solution daily by fluorescence microscopy relative to control; format: tissue-based, Danio rerio; settings: in vivo
BEAS-2B [10] = assay: Induction of ROS generation in human BEAS-2B cells at 0.4 uM incubated for 24 hrs by DCFH-DA probe based analysis; format: toxicity, cell-based
BEAS-2B [11] = assay: Inhibition of mitochondrial membrane potential in human BEAS-2B cells at 200 nM incubated for 24 hrs by JC-1 staining based flow cytometry; format: toxicity, cell-based; settings: 0.2 µM
NCI-H460 [12] = assay: Cytotoxicity against human NCI-H460 cells assessed as inhibition of cell viability incubated for 48 hrs by MTT assay; format: functional, cell-based; settings: NCI-H460, 48 h
[13] = Developmental toxicity in zebrafish AB zygotes assessed as embryo malformation at 2 to 4 uM treated at 6 hrs post-fertilization measured at 24 to 72 hrs post-fertilization; design: species or system Danio rerio; settings: in vivo, dose lower 2 µM, time lower 18 hrs, dose upper 4 µM, time upper 66 hrs
[14] = Toxicity in zebrafish embryo assessed as death rate at 2 uM pretreated with compound followed by replacement of growth liquid by microscopy (reference value: 2.22 +/- 3.84 %); design: species or system Danio rerio; settings: in vivo, read-out: Activity
NCI-H1975 [15] = assay: Inhibition of cell migration in human NCI-H1975 cells at 2.5 to 5 nM incubated upto 72 hrs by scratch healing assay; format: functional, cell-based; settings: dose 2.5-5 nM
[16] = Teratogenic toxicity in zebrafish AB zygotes at 2 to 4 uM treated at 6 hrs post-fertilization measured at 24 to 72 hrs post-fertilization; design: species or system Danio rerio; settings: in vivo, dose lower 2 µM, time lower 18 hrs, dose upper 4 µM, time upper 66 hrs
[17] = Toxicity in zebrafish embryo assessed as liver development at 0.25 uM with replacement of new growth solution daily by fluorescence microscopy (reference value: 100.00 +/- 8.64 %); format: tissue-based, Danio rerio; settings: in vivo
[18] = Drug accumulation in mitochondria of human NCI-H1975 cells at 10 uM incubated for 7 hrs by HPLC analysis; format: ADME; settings: nci-h1975, 7 h
[19] = Toxicity in zebrafish embryo assessed as death rate at 1 uM pretreated with compound followed by replacement of growth liquid by microscopy (reference value: 2.22 +/- 3.84 %); design: species or system Danio rerio; settings: in vivo, read-out: Activity
[20] = Toxicity in zebrafish embryo assessed as damage effect in liver function at 0.5 uM with replacement of new growth solution daily by fluorescence microscopy relative to control; format: tissue-based, Danio rerio; settings: in vivo
NCI-H1975 [21] = assay: Inhibition of cell viability in human NCI-H1975 cells assessed as cell index at 270 nM measured after 48 hrs by real-time cell analysis; format: functional
[22] = Toxicity in zebrafish embryo assessed as liver function at 0.5 uM with replacement of new growth solution daily by fluorescence microscopy (reference value: 100 +/- 8.89 %); format: tissue-based, Danio rerio; settings: in vivo
[23] = Toxicity in zebrafish embryo assessed as liver function at 0.25 uM with replacement of new growth solution daily by fluorescence microscopy (reference value: 100 +/- 8.89 %); format: tissue-based, Danio rerio; settings: in vivo
[24] = Toxicity in zebrafish embryo assessed as death rate at 0.5 uM pretreated with compound followed by replacement of growth liquid by microscopy (reference value: 0.00 %); design: species or system Danio rerio; settings: in vivo, read-out: Activity
A549 = assay: Cytotoxicity against human A549 cells assessed as inhibition of cell viability incubated for 48 hrs by MTT assay; format: functional, cell-based; settings: A549, 48 h
[25] = Toxicity in zebrafish at 2 uM; design: species or system Danio rerio; settings: in vivo
[26] = Toxicity in zebrafish embryo assessed as damage effect in liver development at 0.25 uM with replacement of new growth solution daily by fluorescence microscopy relative to control; design: species or system Danio rerio; settings: in vivo
[27] = Toxicity in zebrafish embryo assessed as damage effect in liver function at 1 uM with replacement of new growth solution daily by fluorescence microscopy relative to control; design: species or system Danio rerio; settings: in vivo
[28] = Renal toxicity in zebrafish assessed as yolk sac absorption at 0.5 to 4 uM treated at 3 hrs post-fertilization measured at 48 hrs post-compound treatment by FITC staining based microscopy; design: species or system Danio rerio; settings: in vivo, dose 0.5-4 µM
[29] = Developmental toxicity in zebrafish AB zygotes assessed as animal mortality at 4 uM treated at 6 hrs post-fertilization measured at 24 to 72 hrs post-fertilization; design: species or system Danio rerio; settings: in vivo, time 18-66 hrs
[30] = Toxicity in zebrafish embryo assessed as degree of periocular edema at 0.5 uM pretreated with compound followed by replacement of growth liquid by microscopy (reference value: 0.00 %); design: species or system Danio rerio; settings: in vivo
[31] = Developmental toxicity in zebrafish AB zygotes assessed as decrease in body length at 0.25 to 4 uM treated at 6 hrs post-fertilization measured at 24 to 72 hrs post-fertilization; design: species or system Danio rerio; settings: in vivo, dose lower 0.25 µM, time lower 18 hrs, dose upper 4 µM, time upper 66 hrs
NCI-H1975 [32] = assay: Cytotoxicity against human NCI-H1975 cells assessed as cell growth inhibition incubated for 48 hrs by MTT assay; format: functional, cell-based
NCI-H460 [33] = assay: Cytotoxicity against human NCI-H460 cells assessed as cell growth inhibition at 4.5 to 10 nM incubated for 48 hrs by MTT assay relative to control; format: functional; settings: dose 4.5-10 nM
[34] = Renal toxicity in zebrafish assessed as yolk sac absorption at 2 uM treated at 3 hrs post-fertilization measured at 48 hrs post-compound treatment by FITC staining based microscopy; design: species or system Danio rerio; settings: in vivo
MCF7 = assay: Cytotoxicity against human MCF7 cells assessed as cell growth inhibition incubated for 48 hrs by MTT assay; format: functional, cell-based
[35] = Developmental toxicity in zebrafish AB zygotes assessed as embryo malformation at 0.5 to 2 uM treated at 6 hrs post-fertilization measured at 24 to 72 hrs post-fertilization; design: species or system Danio rerio; settings: in vivo, dose lower 0.5 µM, time lower 18 hrs, dose upper 2 µM, time upper 66 hrs
Danio rerio = species: Danio rerio; assay: Induction of ROS production in zebrafish at 1 to 2 uM measured after 48 hrs by fluorescence microscopy; format: functional, organism-based; settings: dose 1-2 µM

SMILES	Activity [1]	mortality at 4 µM [4]	Activity [5]	Activity [6]	Activity [7]	Activity [8]	mortality at 2 µM [14]	inhibition (NCI-H1975 [15])	Activity [17]	Drug uptake [18]	mortality at 1 µM [19]	Activity [20]	Activity [22]	Activity [23]	mortality at 24 h, 0.5 µM [24]	Activity [25]	Activity [26]	Activity [29]	Activity [30]	other results
CC(C)[C@]12O[C@H]1[C@@H]1O[C@]13[C@]1(O[C@H]1C[C@H]1C4=C(CC[C@@]13C)C(=O)OC4)[C@@H]2OC(=O)CCCCCCCC[n+]1ccc(/C=C/c2c[nH]c3ccccc23)cc1.[Br-]	38.54%	11.1%	33.33%	85%	13.33%	15.05%	6.67%	Active	95.17%	Active	6.67%	48.47%	51.53%	61.46%	2.22%	Non-Toxic	4.83%	Non-Toxic	2.22%	Activity [2]: 79.96%; Activity [3]: 41.79%; Activity [9]: 23.76%; Activity (BEAS-2B [10]): Toxic; Activity (BEAS-2B [11]): Non-Toxic; IC50 (NCI-H460 [12]): 4.78 µM; Activity [13]: Toxic; Activity [16]: Toxic; Activity_index (NCI-H1975 [21]): 0; IC50 (A549): 46.1 µM; Activity [27]: 72.82%; Activity [28]: Non-Toxic
CC(C)[C@]12O[C@H]1[C@@H]1O[C@@]13[C@@]1(C)CCC4=C(COC4=O)[C@@H]1C[C@@H]1O[C@@]13C2=O [TRIPTONIDE]	49.45%	22.2%	48.89%	45.38%	13.33%	54.62%	13.3%	Active	87.8%	Active	11.1%	76.91%	23.09%	50.55%	2.22%	Toxic	12.2%	Toxic	6.67%	Activity [31]: Toxic; inhibition (NCI-H1975 [32]): Dose-Dependent Effect; Imax (NCI-H460 [33]): ~40%; Activity [34]: Toxic; inhibition (MCF7): Dose-Dependent Effect; Activity [35]: Toxic; Activity (Danio rerio): Active
